Data taken from patent US20240327421A1 (Marquette University, priority 2017, published 2024).
pIC50: −log10 of the molar value. “And” between values parts separate entries of the source, which are not always exact repeats. Equal values may be shown once. “Also recorded” adds a separate entry of the source.

Experiments:
[1] = biological target: T1, Mineralocorticoid Receptor (MR) (Homo sapiens, UniProt P08235); experiment: GeneBLAzer nuclear hormone receptor specificity assay, MR; type: cell-based; conditions: 0.25 to 25 μM; listed as ISP358-2
T1 sequence (P08235 726-964 limits assumed): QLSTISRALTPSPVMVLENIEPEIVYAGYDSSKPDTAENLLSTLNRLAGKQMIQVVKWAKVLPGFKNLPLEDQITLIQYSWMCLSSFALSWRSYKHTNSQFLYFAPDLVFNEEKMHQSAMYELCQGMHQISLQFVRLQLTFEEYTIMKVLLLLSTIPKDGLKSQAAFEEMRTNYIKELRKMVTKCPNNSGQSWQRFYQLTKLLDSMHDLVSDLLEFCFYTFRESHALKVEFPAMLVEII

[2] = biological target: T2, Progesterone Receptor (PR) (Homo sapiens, UniProt P06401); experiment: GeneBLAzer nuclear hormone receptor specificity assay, PR; type: cell-based; conditions: 0.25 to 25 μM; listed as ISP358-2
T2 sequence (P06401 679-913 limits assumed): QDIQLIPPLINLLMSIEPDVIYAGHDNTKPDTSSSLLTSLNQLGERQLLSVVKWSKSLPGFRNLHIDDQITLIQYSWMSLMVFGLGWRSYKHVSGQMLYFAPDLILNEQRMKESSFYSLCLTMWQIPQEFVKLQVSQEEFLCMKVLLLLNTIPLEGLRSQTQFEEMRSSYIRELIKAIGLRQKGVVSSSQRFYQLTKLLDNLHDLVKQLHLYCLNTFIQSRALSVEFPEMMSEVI
Protocol: Nuclear Hormone Receptor Specificity Assay. Selectivity measurements were performed using the SelectScreen™ cell-based nuclear receptor profiling service from ThermoFisher (FIG. 3A). This is a FRET-based assay that uses GeneBLAzer™ technology. It detects ligand binding to and activation of a nuclear hormone receptor of interest (ligand binding domain; LBD) that is fused to a GAL4 DNA binding domain (DBD), which upon activation induces expression of beta-lactamase. The assay has a Z′≥0.5 in agonist mode. […]

ERα = biological target: T3, ERα (Homo sapiens, UniProt P03372); experiment: Cell-based luciferase reporter assay, full length ERα, agonist mode; conditions: full length ERα, 22 h, read-out: ERα agon. IC50
T3 construct: employs a full length and native ER (comprised of an ER LBD and an ER DBD)
T3 sequence (P03372 1-595): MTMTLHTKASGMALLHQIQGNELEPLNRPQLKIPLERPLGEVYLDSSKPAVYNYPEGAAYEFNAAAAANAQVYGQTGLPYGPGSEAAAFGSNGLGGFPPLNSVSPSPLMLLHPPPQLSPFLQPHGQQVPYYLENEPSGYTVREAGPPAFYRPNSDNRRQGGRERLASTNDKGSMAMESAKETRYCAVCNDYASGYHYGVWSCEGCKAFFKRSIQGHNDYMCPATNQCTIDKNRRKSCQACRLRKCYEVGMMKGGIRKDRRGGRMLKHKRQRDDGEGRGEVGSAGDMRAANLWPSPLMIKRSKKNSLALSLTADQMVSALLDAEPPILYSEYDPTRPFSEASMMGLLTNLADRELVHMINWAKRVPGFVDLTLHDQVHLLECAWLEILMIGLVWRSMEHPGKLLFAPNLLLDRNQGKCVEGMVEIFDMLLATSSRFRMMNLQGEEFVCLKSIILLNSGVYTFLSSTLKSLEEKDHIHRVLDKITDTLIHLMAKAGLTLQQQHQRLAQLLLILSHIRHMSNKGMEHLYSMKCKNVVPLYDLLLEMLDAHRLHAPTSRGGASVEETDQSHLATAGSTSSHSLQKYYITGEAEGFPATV

CYP2D6 = biological target: T4, CYP2D6 (Homo sapiens, UniProt P10635); experiment: P450-Glo CYP450 inhibition, CYP2D6; type: in vitro ADME; conditions: highest concentration 62.6 μM; listed as ISP358-2
T4 construct: purchased Promega Corporation (Madison, WI)
Protocol: (§1) In Vitro Druggability Assays-CYP450 Binding, hERG & Nephelometry. The P450-Glo™ Screening System from Promega Corporation (Madison, WI) was used to measure CYP450 (cytochrome P450) inhibition, as described in the kit instructions. Assays were run in 96-well white plates (Corning® 3912), and luminescence was measured on a SpectraMax M5 instrument (FIG. 6). The luminescence signal is proportional to the amount of luciferin product formed by the CYP reaction. Compounds were prepared in DMSO, then an eight-step 1:2 dilution series was made in DMSO. […] After adding the relevant Cytochrome P450 enzyme, the plate was incubated at 37° C. for 10 minutes to allow components to come to temperature. Next, the NADPH regeneration system was added to activate the reaction on a luminogenic P450-GloTM substrate, and incubated at 37° C. for 10-30 min, according to kit instructions for each CYP enzyme. The enzyme reaction was stopped by the addition of Luciferin Detection Reagent and luminescence of the plate was read in a Spectramax M5 (Molecular Devices) after a 20 min incubation at room temperature. Data were normalized to positive controls (α-naphthoflavone for CYP1A2, sulfaphenazole for CYP2C9, quinidine for CYP2D6, and ketoconazole for CYP3A4). Data analysis was with Prism software, as described above.

ovariectomized mice = experiment: Object placement (spatial memory consolidation) test; conditions: for object placement: spatial memory consolidation after long-term ovariectomy: oral gavage 4 months after ovariectomy, same doses (0.5 or 5 mg/kg ISP358-2, 0.05 mg/kg DPN), preliminary
CYP1A2 = biological target: T5, CYP1A2 (Homo sapiens, UniProt P05177); experiment: P450-Glo CYP450 inhibition, CYP1A2; type: in vitro ADME; conditions: highest concentration 62.6 μM; listed as ISP358-2
T5 construct: purchased Promega Corporation (Madison, WI)
T5 sequence (P05177 1-516): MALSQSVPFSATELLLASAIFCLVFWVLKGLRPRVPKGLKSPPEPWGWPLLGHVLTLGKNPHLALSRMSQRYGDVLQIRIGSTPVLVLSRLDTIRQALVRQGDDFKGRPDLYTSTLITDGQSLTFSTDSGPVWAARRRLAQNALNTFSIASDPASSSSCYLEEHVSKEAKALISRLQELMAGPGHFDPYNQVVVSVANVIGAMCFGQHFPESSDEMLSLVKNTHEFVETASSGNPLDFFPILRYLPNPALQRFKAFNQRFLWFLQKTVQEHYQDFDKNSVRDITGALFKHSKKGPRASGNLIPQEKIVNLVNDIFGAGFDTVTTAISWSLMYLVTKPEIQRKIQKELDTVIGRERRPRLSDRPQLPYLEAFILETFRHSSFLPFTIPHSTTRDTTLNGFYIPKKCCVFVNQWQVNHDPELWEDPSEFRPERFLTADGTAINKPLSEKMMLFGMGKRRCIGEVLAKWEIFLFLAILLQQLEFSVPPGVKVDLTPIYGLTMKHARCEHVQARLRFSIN
Protocol: as §1

T4 sequence (P10635 whole entry): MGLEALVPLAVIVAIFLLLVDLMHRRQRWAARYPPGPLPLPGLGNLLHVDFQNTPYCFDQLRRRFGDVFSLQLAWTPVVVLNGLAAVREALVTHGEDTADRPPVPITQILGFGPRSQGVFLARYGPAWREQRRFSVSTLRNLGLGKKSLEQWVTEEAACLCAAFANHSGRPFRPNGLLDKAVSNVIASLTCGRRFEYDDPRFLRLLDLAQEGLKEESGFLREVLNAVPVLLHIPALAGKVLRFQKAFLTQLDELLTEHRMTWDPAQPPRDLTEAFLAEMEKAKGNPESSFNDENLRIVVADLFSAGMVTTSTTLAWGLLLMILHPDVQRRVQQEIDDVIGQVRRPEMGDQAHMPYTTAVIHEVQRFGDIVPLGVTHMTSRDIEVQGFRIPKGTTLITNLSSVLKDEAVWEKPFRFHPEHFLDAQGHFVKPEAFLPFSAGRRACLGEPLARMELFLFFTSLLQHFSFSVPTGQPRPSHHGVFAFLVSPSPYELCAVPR

## OC[C@H]1CC[C@H](c2ccc(O)cc2)CC1 [Compound 16]
[1]
  agonist activity, MR: not an agonist; also recorded: no significant off-target activity
[2]
  agonist activity, PR: not an agonist; also recorded: no significant off-target activity
ERα
  pIC50: 4.69 and 4.73
CYP2D6
  CYP2D6 inhibition: no significant inhibition
Ovariectomized mice; IP injection, 0.5 mg/kg, listed as ISP358-2, 0.5 mg/kg
  object placement: time with moved object / memory consolidation: spent significantly more time than chance with the moved object; also recorded: most effectively enhanced consolidation; also recorded: enhanced memory consolidation
Ovariectomized mice; IP injection, 5 mg/kg, listed as ISP358-2, 5 mg/kg
  object placement: time with moved object / memory consolidation: spent significantly more time than chance with the moved object; also recorded: also enhanced OP memory consolidation
Ovariectomized mice; dorsal hippocampal infusion, 10 pg/hemisphere, tested 24 h after training, chance 15 s
  object placement: time with moved object / memory consolidation: did not spend significantly more time than chance with the moved object
Ovariectomized mice; dorsal hippocampal infusion, 100 pg/hemisphere, tested 24 h after training, listed as ISP358-2
  object placement: time with moved object / memory consolidation: spent significantly more time than chance with the moved object; also recorded: enhanced memory consolidation; also recorded: significantly increased time was spent
Ovariectomized mice; dorsal hippocampal infusion, 1 ng/hemisphere, tested 24 h after training, listed as ISP358-2
  object placement: time with moved object / memory consolidation: spent significantly more time than chance with the moved object; also recorded: enhanced memory consolidation; also recorded: significantly increased time was spent
Ovariectomized mice
  object placement: spatial memory consolidation after long-term ovariectomy: did not enhance spatial memory consolidation
Ovariectomized mice; listed as ISP358-2
  object placement: spatial memory consolidation after long-term ovariectomy: neither DPN nor ISP358-2 affected memory
Ovariectomized mice; oral gavage, 0.5 mg/kg, within 1 month of ovariectomy, listed as ISP358-2, 0.5 mg/kg
  object placement: time with moved object / memory consolidation: exhibited a significant preference for the moved object relative to chance; also recorded: enhanced memory consolidation
Ovariectomized mice; oral gavage, 5 mg/kg, within 1 month of ovariectomy, listed as ISP358-2, 5 mg/kg
  object placement: time with moved object / memory consolidation: exhibited a significant preference for the moved object relative to chance; also recorded: most effective; also recorded: enhanced memory consolidation
CYP1A2
  CYP1A2 inhibition: no significant inhibition
